The results in this text go back to patent publication US20250376483A1, “PRODRUGS OF PAN-KRAS INHIBITORS” (Mirati Therapeutics, Inc., priority 2022, published 2025).

Bounds are passed on as bounds.

Series [1] in a line: Whole Blood Stability Assay (mouse whole blood). It is filed as in vitro ADME. As to conditions: CD-1 mouse blood, EDTA-K2, final conc. 2 μM, 37° C., 0-120 min; for half-life at 2 μM: male, fresh whole blood, read-out: Mouse Whole Blood Stability t1/2. Here is the method:
Whole Blood Stability Assay
This Example illustrates that exemplary compounds of the present invention is cleavage in mouse whole blood.
(§1) Test Compounds and Stock Solutions: Stock Conc. 10 mM; Final Conc. 2 μM
(§2) Test Compound and Control Working Solution Preparation:
• Intermediate solution: 5 μL of compound stock solution (10 mM in dimethyl sulfoxide (DMSO)) were diluted with […] of DMSO (intermediate solution concentration: 1 mM, 100% DMSO) • Propantheline bromide (control) intermediate solution: 5 μL of propantheline stock solution (10 mM in ultra-pure water) were diluted with 45 μL of ultra-pure water (intermediate solution concentration: 1 mM) • Working solution 1: 20 μL of test compound intermediate solution (1 mM) were diluted with 180 μL of 45% ACN/H2O (working solution concentration: […], 40.5% ACN, 10% DMSO) • Working solution 2: 20 μL of control intermediate solution (1 mM) were diluted with 180 μL of 45% ACN/H2O (working solution concentration: 100 μM, 40.5% ACN, 10% DMSO) • Species/Matrix: CD-1 Mouse Blood • No. of Individuals: n>3 Male • Anticoagulant Used: EDTA-K2
• The fresh blood was collected on the day of experiment and pre-warmed in a water bath at 37° C. • Using an Apricot automation workstation, 98 μL/well of blank blood were added to all 96-well reaction plates (Blank, T0, T10, T30, T60 and T120). • An Apricot automation workstation was used to add 2 μL/well of working solution (100 μM) to all reaction plates except Blank (T0, T10, T30, T60 and T120). • All reaction plates containing mixtures of compound and blood were incubated at 37° C. in water bath. • The reaction plates were incubated at 37° C., and timer was started. • At the end of incubation, mixed 100 μL water with 100 μL spiked blood samples, then added 800 μL of stop solution (200 ng/mL tolbutamide and 200 ng/mL labetalol in ACN) to precipitate protein. Mixed thoroughly. • Each plate was sealed and shaken for 20 minutes. • After shaking, each plate was centrifuged at 4000 rpm and 4° C. for 20 minutes. • After centrifugation, an Apricot automation workstation was used to transfer 150 μL of supernatant from each reaction plate to its corresponding bioanalysis plate. • Each bioanalysis plate was submitted to LC-MS/MS analysis.
• The % remaining of test compound after incubation in blood was calculated using following equation:
(§3) [formula] • where PAR is the peak area ratio of analyte versus internal standard (IS) • The appointed incubation time points are TO (0 min), Tn (n=0, 10, 30, 60 and 120 min)

The nature of series [2]: Plasma Stability Assay (human plasma). It is filed as in vitro ADME. To be noted: both sexes; pooled human plasma, heparin, final conc. 2 μM, 37° C., 0-120 min; read-out: Human Plasma Stability t1/2. Here is the method: This Example illustrates that exemplary compounds of the present invention is cleavage in human plasma.
as §1, §2
• Test compound intermediate solution: 10 μL of compound stock solution (10 mM in dimethyl sulfoxide (DMSO)) were diluted with 90 μL of DMSO (intermediate solution concentration: 1 mM, 100% DMSO) • Control intermediate solution: 10 μL of control stock solution (10 mM in dimethyl sulfoxide (DMSO)) were diluted with 90 μL of DMSO (intermediate solution concentration: 1 mM, 100% DMSO) • Species/Matrix: Human Plasma • No. of Individuals: 3 Male & 3 Female • Anticoagulant Used: Heparin
• The pooled frozen plasma was thawed in a water bath at 37° C. prior to experiment. Plasma was centrifuged at 4000 rpm for 5 min and the clots were removed if any. • Using an Apricot automation workstation, 98 μL/well of blank plasma were added to all 96-well reaction plates. (Blank, T0, T10, T30, T60 and T120) • An Apricot automation workstation was used to add 2 μL/well of working solution (100 μM) to all reaction plates except Blank. (T0, T10, T30, T60 and T120) • All reaction plates containing mixtures of compound and plasma were incubated at 37° C. in water bath. • The reaction plates were incubated at 37° C., and timer was started. • At the end of incubation, added 500 μL of stop solution (200 ng/mL tolbutamide and 200 ng/mL labetalol in ACN) to precipitate protein. Mixed thoroughly. • Each plate was sealed and shaken for 20 minutes. • After shaking, each plate was centrifuged at 4000 rpm and 4° C. for 20 minutes • After centrifugation, an Apricot automation workstation was used to transfer 50 μL supernatant into 100 μL HPLC water. • Each bioanalysis plate was sealed and shaken for 10 minutes prior to LC-MS/MS analysis Data Analysis • The % remaining of test compound after incubation in blood was calculated using following equation:
as §3

With `CCCC(=O)Oc1cc(-c2ncc3c(N4C[C@@H]5C[C@H](C4)[C@H](O)C5)nc(OC[C@@]45CCCN4C[C@H](F)C5)nc3c2F)c2c(CC)c(F)ccc2c1` [Example 11, 5-ethyl-6-fluoro-4-(8-fluoro-2-(((2R,7aS)-2-fluorotetrahydro-1H-pyrrolizin-7a(5H)-yl)methoxy)-4-((1R,5R,6R)-6-hydroxy-3-azabicyclo[3.2.1]octan-3-yl)pyrido[4,3-d]pyrimidin-7-yl)naphthalen-2-yl butyrate], the half-life at 2 μM in series [1] is less than 5 min; in series [2], 46 min.

`CCOC(=O)Oc1cc(-c2ncc3c(N4C[C@@H]5C[C@H](C4)[C@H](O)C5)nc(OC[C@@]45CCCN4C[C@H](F)C5)nc3c2F)c2c(CC)c(F)ccc2c1` [Example 12, ethyl (5-ethyl-6-fluoro-4-(8-fluoro-2-(((2R,7aS)-2-fluorotetrahydro-1H-pyrrolizin-7a(5H)-yl)methoxy)-4-((1R,5R,6R)-6-hydroxy-3-azabicyclo[3.2.1]octan-3-yl)pyrido[4,3-d]pyrimidin-7-yl)naphthalen-2-yl) carbonate]: the half-life at 2 μM in series [1] is less than 5 min; in series [2], 26 min.

On to `CCc1c(F)ccc2cc(OC(=O)C3CCC3)cc(-c3ncc4c(N5C[C@@H]6C[C@H](C5)[C@H](O)C6)nc(OC[C@@]56CCCN5C[C@H](F)C6)nc4c3F)c12` [Example 13, 5-ethyl-6-fluoro-4-(8-fluoro-2-(((2R,7aS)-2-fluorotetrahydro-1H-pyrrolizin-7a(5H)-yl)methoxy)-4-((1R,5R,6R)-6-hydroxy-3-azabicyclo[3.2.1]octan-3-yl)pyrido[4,3-d]pyrimidin-7-yl)naphthalen-2-yl cyclobutanecarboxylate], for which the half-life at 2 μM came out at 6 min in series [1] and 16 min in series [2].

For `CCc1c(F)ccc2cc(OC(=O)OC(C)C)cc(-c3ncc4c(N5C[C@@H]6C[C@H](C5)[C@H](O)C6)nc(OC[C@@]56CCCN5C[C@H](F)C6)nc4c3F)c12` [Example 15, 5-ethyl-6-fluoro-4-(8-fluoro-2-(((2R,7aS)-2-fluorotetrahydro-1H-pyrrolizin-7a(5H)-yl)methoxy)-4-((1R,5R,6R)-6-hydroxy-3-azabicyclo[3.2.1]octan-3-yl)pyrido[4,3-d]pyrimidin-7-yl)naphthalen-2-yl isopropyl carbonate], the half-life at 2 μM is less than 5 min in series [1] and 146 min in series [2].

`CCc1c(F)ccc2cc(OC(=O)C3CCCC3)cc(-c3ncc4c(N5C[C@@H]6C[C@H](C5)[C@H](O)C6)nc(OC[C@@]56CCCN5C[C@H](F)C6)nc4c3F)c12` [Example 17, 5-ethyl-6-fluoro-4-(8-fluoro-2-(((2R,7aS)-2-fluorotetrahydro-1H-pyrrolizin-7a(5H)-yl)methoxy)-4-((1R,5R,6R)-6-hydroxy-3-azabicyclo[3.2.1]octan-3-yl)pyrido[4,3-d]pyrimidin-7-yl)naphthalen-2-yl cyclopentanecarboxylate]: the “Mouse Whole Blood Stability t1/2” value in series [1] was found to be 1 min. Further, in series [2], the half-life at 2 μM is 41 min.

On to `CCCCCC(=O)Oc1cc(-c2ncc3c(N4C[C@@H]5C[C@H](C4)[C@H](O)C5)nc(OC[C@@]45CCCN4C[C@H](F)C5)nc3c2F)c2c(CC)c(F)ccc2c1` [Example 18, 5-ethyl-6-fluoro-4-(8-fluoro-2-(((2R,7aS)-2-fluorotetrahydro-1H-pyrrolizin-7a(5H)-yl)methoxy)-4-((1R,5R,6R)-6-hydroxy-3-azabicyclo[3.2.1]octan-3-yl)pyrido[4,3-d]pyrimidin-7-yl)naphthalen-2-yl hexanoate], for which the half-life at 2 μM in series [1] is less than 5 min; in series [2] it was 44 min.

For the compound `CCc1c(F)ccc2cc(OC(=O)OC(C)(C)C)cc(-c3ncc4c(N5C[C@@H]6C[C@H](C5)[C@H](O)C6)nc(OC[C@@]56CCCN5C[C@H](F)C6)nc4c3F)c12` [Example 19, tert-butyl (5-ethyl-6-fluoro-4-(8-fluoro-2-(((2R,7aS)-2-fluorotetrahydro-1H-pyrrolizin-7a(5H)-yl)methoxy)-4-((1R,5R,6R)-6-hydroxy-3-azabicyclo[3.2.1]octan-3-yl)pyrido[4,3-d]pyrimidin-7-yl)naphthalen-2-yl) carbonate], the half-life at 2 μM in series [1] is 3 min; in series [2], greater than 289 min.

Take `CCc1c(F)ccc2cc(OCOC(=O)N(C)C)cc(-c3ncc4c(N5C[C@@H]6C[C@H](C5)[C@H](O)C6)nc(OC[C@@]56CCCN5C[C@H](F)C6)nc4c3F)c12` [Example 20, ((5-ethyl-6-fluoro-4-(8-fluoro-2-(((2R,7aS)-2-fluorotetrahydro-1H-pyrrolizin-7a(5H)-yl)methoxy)-4-((1R,5R,6R)-6-hydroxy-3-azabicyclo[3.2.1]octan-3-yl)pyrido[4,3-d]pyrimidin-7-yl)naphthalen-2-yl)oxy)methyl dimethylcarbamate]: the half-life at 2 μM in series [1] and in series [2] was greater than 289 min each time.

Regarding `CCc1c(F)ccc2cc(OC(=O)C3CCCCC3)cc(-c3ncc4c(N5C[C@@H]6C[C@H](C5)[C@H](O)C6)nc(OC[C@@]56CCCN5C[C@H](F)C6)nc4c3F)c12` [Example 21, 5-ethyl-6-fluoro-4-(8-fluoro-2-(((2R,7aS)-2-fluorotetrahydro-1H-pyrrolizin-7a(5H)-yl)methoxy)-4-((1R,5R,6R)-6-hydroxy-3-azabicyclo[3.2.1]octan-3-yl)pyrido[4,3-d]pyrimidin-7-yl)naphthalen-2-yl cyclohexanecarboxylate], the “Mouse Whole Blood Stability t1/2” value in series [1] came to 1 min. Moreover, the half-life at 2 μM in series [2] was found to be 41 min.

As for `CCc1c(F)ccc2cc(OC(C)OC(=O)N(C)C)cc(-c3ncc4c(N5C[C@@H]6C[C@H](C5)[C@H](O)C6)nc(OC[C@@]56CCCN5C[C@H](F)C6)nc4c3F)c12` (stereo partly drawn) [Example 22, 1-((5-ethyl-6-fluoro-4-(8-fluoro-2-(((2R,7aS)-2-fluorotetrahydro-1H-pyrrolizin-7a(5H)-yl)methoxy)-4-((1R,5R,6R)-6-hydroxy-3-azabicyclo[3.2.1]octan-3-yl)pyrido[4,3-d]pyrimidin-7-yl)naphthalen-2-yl)oxy)ethyl dimethylcarbamate], the half-life at 2 μM in series [1] and in series [2] was greater than 289 min throughout.

As for `CCCCCCCC(=O)Oc1cc(-c2ncc3c(N4C[C@@H]5C[C@H](C4)[C@H](O)C5)nc(OC[C@@]45CCCN4C[C@H](F)C5)nc3c2F)c2c(CC)c(F)ccc2c1` [Example 24, 5-ethyl-6-fluoro-4-(8-fluoro-2-(((2R,7aS)-2-fluorotetrahydro-1H-pyrrolizin-7a(5H)-yl)methoxy)-4-((1R,5R,6R)-6-hydroxy-3-azabicyclo[3.2.1]octan-3-yl)pyrido[4,3-d]pyrimidin-7-yl)naphthalen-2-yl octanoate], the “Mouse Whole Blood Stability t1/2” value in series [1] was found to be 1 min. Besides, in series [2], the half-life at 2 μM turned out to be 65 min.
